The results in this text go back to patent US20180360799A1, “Nitrofuran Derivatives That Induce Apoptosis in Breast Cancer Cells by Activating Protein Expression” (Oklahoma Medical Research Foundation, priority 2015, published 2018).

In one assay the test system is caspase-3. The experiment in a line: Caspase-3 cleavage by Western blotting in HCC-1806 cells. In kind it is cell-based, human. The following applies: HCC-1806, 10 μM, at 8 h and 24 h. As to the method:
FIG. 2A is an image showing apoptosis of HCC-1806 cells after treatment with a 5-nitrofuran-2-amide derivative compound 3d (above). Cells were treated with 3d (10 μM) for the indicated times, and cleavage of caspase-3 was determined by Western blotting. α-Tubulin was used as a loading control. The data shown are representative of 3 independent studies. FIGS. 2B and 2C are live-cell phase-contrast images (magnification 10×) showing treatment with DMSO and (10 μM) 5-nitrofuran-2-amide derivative compound 3d respectively for 24 h. To determine whether the reduction in TNBC cell viability by the 5-nitrofuran-2-amide derivatives was due to the induction of apoptosis, the inventor analyzed cleavage of caspase-3, a critical executioner of apoptosis, in HCC-1806 cells treated with compound 3d. […] To confirm this, HCC-1806 cells were cultured to near confluence and treated with 10 μM 3d or DMSO for 24 h and then imaged by live-cell phase-contrast microscopy.
HCC-1806 cells were seeded in 60-mm dishes at 8×10^5 cells/dish and treated for the indicated times. Cells were then washed with PBS and lysed with lysis buffer (Cell Signaling Technology, Danvers, Mass., US) containing EDTA and phosphatase inhibitors. Aliquots of 20 μg total protein were separated on 7% SDS-PAGE gels (Life Technologies, Carlsbad, Calif., US) and transferred to PVDF membranes. […]
In general terms: A western blot detects proteins with antibodies after separation by electrophoresis.

The test system of another assay is HCC-1806 cells. Description: Viability of siRNA-transfected HCC-1806 cells, CellTiter-Glo. The class given is cell-based, human. The following applies: 48 h. Here is the method: FIG. 3H is a graph showing cell viability of HCC-1806 cells transfected with a control or CHOP siRNA after treatment with a 5-nitrofuran-2-amide derivative or DMSO. Control or CHOP siRNA (20 nM) was transfected into HCC-1806 cells, and 6 h later, cells were treated with compound 3d (5 μM) or DMSO for 48 h. Cell viability was measured using the CellTiter-Glo assay. The data shown are representative of 3 independent studies. *P<0.05 by Student's t-test compared with DMSO-treated cells.
To confirm that CHOP induction plays a role in compound 3d-mediated TNBC cell death, the inventor asked whether siRNA-mediated knockdown of CHOP mitigated compound 3d-induced cell death. For this, HCC-1806 cells were transfected with different concentrations of CHOP siRNA, and knockdown efficiency was assessed by RT-PCR.
HCC-1806 cells incubated with serum-free RPMI 1640 medium (Corning) were transfected with scrambled control or CHOP siRNA (E-004819-00; Dharmacon/Thermo Scientific, IL, US) using LipofectAMINE reagent (Invitrogen). After 6 h, the medium was replaced with RPMI 1640 medium supplemented with 10% FBS and compound 3d was added. After 48 h, the medium was aspirated and 60 μL/well of CellTiter-Glo reagent was added in 96-w format. Cell viability was measured with an EnVision multilabel plate reader.

A further assay concerns HCC-38 cells. Description: Cell viability, CellTiter-Glo, HCC-38. In kind it is cell-based. The settings on record: Homo sapiens, HCC38, 72 h; Table 2; cancer cell viability, 3 d treatment; read-out: HCC-38 IC50. Here is the method:
Given the known functions of CHOP in ER stress-induced apoptosis^16, 17 and in regulating cancer cell death,^6, 19, 20 the inventor investigated whether compound 1 affects the viability of TNBC cells. Three human TNBC cell lines, HCC-1806, HCC-1143, and HCC-38, were treated with doses of 1 ranging from 0.125 μM to 20 μM and their viability was assessed using the CellTiter-Glo assay, which measures intracellular ATP levels.
HCC-1806, HCC-1143, or HCC-38 cells were seeded at 3×10^3 cells/well in a 384-well plate and treated with compounds at the indicated concentrations. After 3 d treatment, the medium was aspirated and 20 μL/well of CellTiter-Glo reagent was added. Cell viability was measured with an EnVision multilabel plate reader. The IC50 value for cell viability of each compound was calculated with GraphPad Prism (La Jolla, Calif., US).
On the technique in general: In ATP-based viability assays light output follows the ATP content of the culture.

A further assay deals with p-eIF2α. Description: eIF2α phosphorylation by Western blotting. The settings on record: 10 μM, indicated times. In kind it is cell-based, human. Here is the method:
(§1) FIG. 3D is an image showing ATF4 and p-EIF2α protein levels after treatment with a 5-nitrofuran-2-amide derivative compound 3d. Cells were treated with compound 3d (10 μM) for the indicated times, and ATF4 and p-eIF2a protein levels were analyzed by Western blotting. α-Tubulin was used as a loading control. The data shown are representative of 3 independent studies.
(§2) Prolonged or severe ER stress activates CHOP expression primarily through the PERK branch of the unfolded protein response, although the IRE1α and ATF6 branches also contribute.^5, 18 The 5-nitrofuran-2-amide derivatives could induce CHOP expression by acting as an ER stressor that activates all three branches of unfolded protein response or by preferentially activating a select branch of unfolded protein response. To distinguish between these possibilities, the inventor investigated which branches of the unfolded protein response were affected by compound 3d. Activation of the PERK pathway by ER stress leads to phosphorylation of eIF2α, followed by activation of the transcription and translation of the transcription factor ATF4, a 5′-upstream ORF-containing gene, and ATF4-mediated CHOP expression.^5, 22 To determine whether the PERK pathway is involved in compound 3d-mediated CHOP induction, ATF4 expression and eIF2a phosphorylation in HCC-1806 cells by qRT-PCR and Western blotting were analyzed. […]

For a further assay, the system named is ATF4 protein. Description: ATF4 protein by Western blotting. The class given is cell-based, human. The following applies: 10 μM, indicated times. Here is the method:
as §1, §2

For `CC1CCN(c2ccc(NC(=O)c3ccc([N+](=O)[O-])o3)cc2)CC1` [Compound 3d], the “cleavage of caspase-3” value with caspase-3 is reported as “increased cleavage of caspase-3 protein levels”. In addition, the “viability of cells transfected with control siRNA” value in the assay with HCC-1806 cells (HCC-1806, 3d 5 μM) is “marked reduction in the viability”. Also, the “cell death in cells transfected with CHOP siRNA” value in the assay on HCC-1806 cells (HCC-1806, CHOP siRNA 20 nM, 3d 5 μM) was “significantly attenuated the effects of compound 3d”. Besides, the IC50 (as a rule, the concentration at which inhibition is half-maximal) in the assay with HCC-38 cells is 2500 nM. In the assay on p-eIF2α, the “phosphorylation of eIF2α” value is given as “substantially increased the phosphorylation of eIF2a”. Further, in the assay on ATF4 protein, the “ATF4 expression, protein” value was “significantly increased ATF4 expression”.
